Source: US20210187128A1, “COLOR CHANGING SILK PATCH FOR VISIBLE ROS DETECTION” (University of Central Florida Research Foundation, Inc., priority 2019, published 2021)

Experiments:
[1] = test system: human skin keratinocyte (HaCat) cells; experiment: In vitro cellular biocompatibility of Amplex Red by MTT assay; assay type: cell-based; details: for cellular viability: highest concentration of 388 μM, beyond 80% considered biocompatible
Protocol: Amplex Red compound was tested for in vitro cellular toxicity analysis against the human skin keratinocyte (HaCat) cells (purchased from ATCC, USA) using cell culture-based MTT assay. Herein, 10,000 cells were grown overnight into a 96 well plate using DMEM:F12 cell culture media. Different concentrations of Amplex red compound were prepared using incomplete cell culture media and incubated with HaCat cells for a time period of 24 hours and 48 hours respectively. Post incubation time period, MTT analysis was performed using the standard protocol described in Singh 2018, herein incorporated by reference into this disclosure in its entirety. (S. (Singh, A. Ly, S. Das, T. S. Sakthivel, S. Barkam and S. Seal, Artif. Cells, Nanomed., Biotechnol., 2018, 1-8). MTT assay compound (Thiazyolyl blue tetrazolium bromide) was then added for measuring the cellular viability, and absorbance was recorded for treated samples in comparison to control samples (HaCat cells only) and data analysis was performed.

[2] = cited from earlier work

- concentration found to be highly biocompatible ([1]; 24 hours): up to 388 μM
- concentration found to be highly biocompatible ([1]; 48 hours): up to 388 μM
SMILES: CC(=O)N1c2ccc(O)cc2Oc2cc(O)ccc21 [Amplex Red]
- toxicity to the cells [1]: completely non-toxic
- cellular viability ([1]; 24 hours): > 80%
- cellular viability ([1]; 48 hours): > 80%
- detection limit for H2O2 in solutions ([2]; in solutions): 10 picomolar
- amount of H2O2 detected (limit of detection) ([2]; with HRP, 100 μL volume): 10 picomoles
